This is an account of results in patent US10039747B2, “Tetrahydrocyclopentapyrrole derivatives and a method for preparing the same” (Daewoong Pharmaceutical Co., Ltd., priority 2013, dated 2018).

One test deals with T1, H+/K+-ATPase (Sus scrofa, UniProt P19156).
T1 construct: reaction buffer solution (60 mmol/l Tris-HCl buffer solution, pH 7.4) containing hog gastric vesicle; from tissue; host or cells: hog stomach (gastric vesicles, by centrifugation after Rabon et al. 1988)
Kind of test: Inhibition of proton pump (H+/K+-ATPase) activity in hog gastric vesicles. It is filed as biochemical. The note with it: K+ specific H+/K+-ATPase activity, pH 7.4, 37° C. for 40 minutes, malachite green. In outline:
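Hog gastric vesicles in 60 mmol/l Tris-HCl pH 7.4 with compound, started with ATP, 40 min at 37° C. Pi read by malachite green at 570 nm; K+-specific activity taken as difference between +K+ and −K+ activity. IC50 from % inhibition by 4-parameter logistic fit.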

The subject of test [1] is basal gastric acid secretion in pylorus-ligated rat. Kind of test: Inhibition of basal gastric acid secretion in pylorus-ligated rat (Shay's rat model). It is filed as in vivo. The following applies: total acid output, male SD rats, 3 mg/kg into the caudal vein, 5 hours after pylorus ligation. The protocol: 3) Effect of Inhibiting Basal Gastric Acid Secretion in Pylorus-Ligated Rat
The measurement of effect of inhibiting basal gastric acid secretion by the compound of the present invention was conducted according to shay's rat model (Shay, H., et al., 1945, gastroenterology, 5, p 43-61). Male Sprague Dawley (SD) rats (body weight 180-220 g) were divided into X groups (n=5), and fasted while feeding only water for 18 hours. Under isoflurane anesthesia, incision of abdominal cavity of rat was made to ligate pylorus, and, immediately after the ligation, to the control groups, only an aqueous solution of 10% ethanol, 20% polyethyleneglycol (PEG) 400 and 10% Cremophor was administered into the caudal vein, and to the other groups, a test compound suspended in an aqueous solution of 10% ethanol, 20% polyethyleneglycol 400, 10% Cremophor was administered into the caudal vein at a dose of 3 mg/kg/2 ml. […] The amount and the pH of the obtained gastric juice were measured, the acidity of gastric juice was measured with 0.1 N-NaOH volume (ueq/ml) required for automatic titration of gastric juice to pH 7.0, and total acid output was calculated by multiplying the acidity of gastric juice and the amount of gastric juice. % Inhibition activity of test compound=(total acid secretion of control group−total acid secretion of the group treated with test compound)/total acid secretion of control group×100

T1 sequence (P19156 2-1034 limits assumed): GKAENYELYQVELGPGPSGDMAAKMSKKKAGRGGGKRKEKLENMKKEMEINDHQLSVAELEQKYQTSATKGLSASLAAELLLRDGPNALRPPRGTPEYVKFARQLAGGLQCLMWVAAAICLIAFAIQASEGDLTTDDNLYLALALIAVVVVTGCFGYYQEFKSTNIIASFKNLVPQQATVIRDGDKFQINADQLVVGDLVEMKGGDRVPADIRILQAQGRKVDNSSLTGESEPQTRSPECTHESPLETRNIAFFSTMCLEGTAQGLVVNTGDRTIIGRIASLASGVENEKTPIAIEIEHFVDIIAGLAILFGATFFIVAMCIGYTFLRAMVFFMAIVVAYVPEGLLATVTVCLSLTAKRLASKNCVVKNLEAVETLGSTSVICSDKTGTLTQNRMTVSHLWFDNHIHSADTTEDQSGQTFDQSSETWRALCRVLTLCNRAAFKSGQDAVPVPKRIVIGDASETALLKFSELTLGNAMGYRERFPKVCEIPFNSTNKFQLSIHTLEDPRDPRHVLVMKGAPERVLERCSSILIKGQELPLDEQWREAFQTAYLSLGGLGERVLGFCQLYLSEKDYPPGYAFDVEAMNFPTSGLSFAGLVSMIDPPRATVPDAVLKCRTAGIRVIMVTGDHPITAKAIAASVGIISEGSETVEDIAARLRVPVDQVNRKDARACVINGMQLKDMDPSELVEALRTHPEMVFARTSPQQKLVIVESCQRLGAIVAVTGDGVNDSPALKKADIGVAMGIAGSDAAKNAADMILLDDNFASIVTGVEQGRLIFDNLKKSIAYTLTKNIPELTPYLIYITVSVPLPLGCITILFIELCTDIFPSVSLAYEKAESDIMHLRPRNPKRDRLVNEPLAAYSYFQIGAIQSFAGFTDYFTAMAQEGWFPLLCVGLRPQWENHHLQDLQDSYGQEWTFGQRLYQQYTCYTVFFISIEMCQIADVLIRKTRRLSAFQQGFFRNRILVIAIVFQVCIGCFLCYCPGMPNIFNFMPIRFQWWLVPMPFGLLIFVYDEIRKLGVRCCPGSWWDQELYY
T1 sequence (P18434 whole entry partner): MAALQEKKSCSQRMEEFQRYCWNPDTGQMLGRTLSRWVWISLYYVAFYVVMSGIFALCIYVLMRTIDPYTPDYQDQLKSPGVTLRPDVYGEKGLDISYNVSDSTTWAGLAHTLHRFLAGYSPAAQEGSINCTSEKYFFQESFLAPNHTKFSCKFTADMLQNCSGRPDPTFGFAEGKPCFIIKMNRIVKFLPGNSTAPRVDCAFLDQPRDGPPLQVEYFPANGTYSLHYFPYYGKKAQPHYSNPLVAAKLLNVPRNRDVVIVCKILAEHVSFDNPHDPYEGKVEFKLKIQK

With `CNC1CCc2c1cn(S(=O)(=O)c1cccc(Cl)c1)c2-c1ccccc1F` (stereo not drawn) [Example 1], the IC50 against H+/K+-ATPase came to 340 nM. The “% inhibition activity” value in test [1] is 92%.

With `CNC1CCc2c1cn(S(=O)(=O)c1cccc(F)c1)c2-c1ccc(F)cc1F` (stereo not drawn) [Example 113, 1-(2,4-difluorophenyl)-2-((3-fluorophenyl)sulfonyl)-N-methyl-2,4,5,6-tetrahydrocyclopenta[c]pyrrol-4-amine], at H+/K+-ATPase, the IC50 was 310 nM. In addition, the “% inhibition activity” value in test [1] came to 52%.

In turn, `Cc1cccc(S(=O)(=O)n2cc3c(c2-c2ccccc2F)CCCC3N(C)C)c1` (stereo not drawn) [Example 137, 1-(2-fluorophenyl)-N,N-dimethyl-2-(m-tolylsulfonyl)-4,5,6,7-tetrahydro-2H-isoindole-4-amine] displayed an IC50 against H+/K+-ATPase of 6000 nM.

The compound `CNC1CCCc2c1cn(S(=O)(=O)c1cccc(OC(F)(F)F)c1)c2-c1ccccc1F` (stereo not drawn) [Example 125, 1-(2-fluorophenyl)-N-methyl-2-((3-(trifluoromethoxy)phenyl)sulfonyl)-4,5,6,7-tetrahydro-2H-isoindole-4-amine] returned an IC50 against H+/K+-ATPase of 4420 nM. The IC50 values of the last two compounds are within 1.5-fold of each other.
